Assay results reported in patent US20230000807A1, “CBD ORAL FORMULATION” (Clear Lake Research, LLC, priority 2020, published 2023).

What was measured:
[1] = applied topically; cited from earlier work
CB2 receptors [2] = target: T1, CB2 receptors (Homo sapiens, UniProt P34972); settings: cited from earlier work
CB2 receptors [3] = target: T1, CB2 receptors; assay: receptor affinity; assay type: binding; settings: estimated; times the affinity of CBD
Description: Because CB2 receptors have a low affinity for CBD, a relatively large amount of CBD should be used for efficacy. In a specific implementation, a thin film strip has 100 mg CBD. In alternatives, the oral thin film is as little as 20 mg CBD. Because CBD is a relatively expensive component, the ratio of CBD to other components is more prone to cost/efficacy trade-offs than other components of the formulation. Advantageously, a low does of CBD, of 50 mg or less, acts as a stimulant, making a 20 mg to 50 mg formulation appropriate for formulations that have a goal of reducing the amount of CBD necessary and meeting one of the goals of a concentration improver/mood enhancer, which is stimulation.
A greater proportion of CBD may be desirable for the purpose of binding to theorized CBD3 receptors or other presently poorly defined receptors with less affinity for CBD. A high dose of CBD, over 100 mg up to less than 250 mg can have a sedative effect that may be effective for certain individuals, though it is unlikely desirable to reach 250 mg. If CBD is replaced with by endocannabinoid with (an estimated) 1,000 times the affinity of CBD, such as 2-Lineoleoyl-glycerol (3443-82-1) or 2-Palmitolyl-glycerol (23470-00-0), an alternative implementation of the oral thin film could have 0.025 mg to 0.1 mg endocannabinoid, but the formulation would likely be much more expensive than CBD.

T1 sequence (P34972 whole entry): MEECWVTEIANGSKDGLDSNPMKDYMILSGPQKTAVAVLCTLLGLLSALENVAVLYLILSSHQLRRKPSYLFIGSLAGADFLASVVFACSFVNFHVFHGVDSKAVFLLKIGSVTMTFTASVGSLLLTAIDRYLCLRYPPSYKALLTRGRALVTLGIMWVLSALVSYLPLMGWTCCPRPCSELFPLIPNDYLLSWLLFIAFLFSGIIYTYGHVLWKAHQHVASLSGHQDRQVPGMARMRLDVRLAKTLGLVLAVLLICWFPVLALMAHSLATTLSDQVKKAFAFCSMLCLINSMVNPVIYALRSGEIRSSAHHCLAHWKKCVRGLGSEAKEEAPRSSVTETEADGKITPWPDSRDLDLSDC

Molecule | time to have a significant pain relief impact [1] | affinity of CB2 receptors for the substance (CB2 receptors [2]) | affinity relative to CBD (CB2 receptors [3])
C=C(C)[C@@H]1CCC(C)=C[C@H]1c1c(O)cc(CCCCC)cc1O [CBD, cannabidiol] | about 30 minutes | low affinity | –
2-Lineoleoyl-glycerol | – | – | ~1,000 times
2-Palmitolyl-glycerol | – | – | ~1,000 times
